{
  "source": "patent US12285407B2",
  "about": "“Bis-indolylmethane derivatives and uses thereof” (The University of The West Indies, priority 2018, dated 2025)",
  "key": {"Bacillus cereus": {"system": "Bacillus cereus", "assay": "Checkerboard synergy (FICI) of antibiotics with SP-BIM", "assay_type": "cell-based", "conditions": "for MIC: 24 h, antibiotic alone, read-out: MIC antibiotic only"}, "[1]": {"system": "clinical antibiotic resistant isolates of MRSA", "assay": "Checkerboard resistance breaking by SP-BIM 13", "assay_type": "cell-based, Staphylococcus aureus", "conditions": "for FIC compound / Rescue concentration of SP-BIM 13: SP-BIM 13 with the labelled antibiotic; for Interpretation / Σ FIC: antibiotic + SP-BIM 13; for MIC of antibiotic only: antibiotic alone; for FIC antibiotic: combination with SP-BIM 13; for MIC of antibiotic in combination: with SP-BIM 13 at rescue concentration"}, "Enterococcus faecalis": {"system": "Enterococcus faecalis", "assay": "Adjuvant broth microdilution (antibiotic MIC with SP-BIM at 50 μg/mL)", "assay_type": "cell-based", "conditions": "antibiotic alone"}, "Klebsiella pneumoniae": {"system": "Klebsiella pneumoniae", "assay": "Checkerboard synergy (FICI) of antibiotics with SP-BIM", "assay_type": "cell-based", "conditions": "for MIC: 24 h, antibiotic alone, read-out: MIC antibiotic only"}, "Streptococcus pneumoniae [2]": {"system": "Streptococcus pneumoniae", "assay": "Adjuvant broth microdilution (antibiotic MIC with SP-BIM at 50 μg/mL)", "assay_type": "cell-based", "conditions": "Streptococcus pneumoniae; Streptococcus pneumonia; antibiotic alone; Table 5; read-out: MIC of antibiotic, No compound"}, "Streptococcus pneumoniae [3]": {"system": "Streptococcus pneumoniae", "assay": "Checkerboard synergy (FICI) of antibiotics with SP-BIM", "assay_type": "cell-based", "conditions": "Streptococcus pneumonia (title: Streptococcus pyogenes); SP-BIM 9 in combination with the labelled antibiotic"}, "[4]": {"conditions": "SP-BIM 9 in combination with the labelled antibiotic"}, "[5]": {"conditions": "SP-BIM 13 in combination with the labelled antibiotic"}, "[6]": {"conditions": "antibiotic in combination with SP-BIM 9"}, "[7]": {"conditions": "antibiotic in combination with SP-BIM 13"}},
  "note": "Read-outs that look alike come from different tables or passages of the source.",
  "data": [
    {"smiles": "C[C@H]1c2cccc(O)c2C(=O)C2=C(O)[C@]3(O)C(=O)C(C(N)=O)=C(O)[C@@H](N(C)C)[C@@H]3[C@@H](O)[C@@H]21", "note": "[Doxycycline, doxycycline]", "values": [
      {"measurement": "MIC", "setting": "Bacillus cereus; SP-BIM 9 checkerboard", "value": 4, "unit": "µg/mL"},
      {"measurement": "MIC", "setting": "Bacillus cereus; SP-BIM 13 checkerboard", "value": 4, "unit": "µg/mL"},
      {"measurement": "MIC in combination, SP-BIM 9", "setting": "Bacillus cereus; SP-BIM 9 concentration in combination with the labelled antibiotic", "value": 125, "unit": "µg/mL"},
      {"measurement": "FIC of SP-BIM 9", "setting": "Bacillus cereus; [4]", "value": 0.5},
      {"measurement": "FIC of SP-BIM 13", "setting": "Bacillus cereus; [5]", "value": 0.3},
      {"measurement": "Interpretation", "setting": "Bacillus cereus; antibiotic + SP-BIM 9", "value": "Synergy (Synergy: FICI≤0.5)"},
      {"measurement": "Σ FIC", "setting": "Bacillus cereus; antibiotic + SP-BIM 9", "value": "<0.6"},
      {"measurement": "Interpretation", "setting": "Bacillus cereus; antibiotic + SP-BIM 13", "value": "Synergy (Synergy: FICI≤0.5)"},
      {"measurement": "Σ FIC", "setting": "Bacillus cereus; antibiotic + SP-BIM 13", "value": 0.5},
      {"measurement": "MIC in combination, Antibiotic", "setting": "Bacillus cereus; [6]", "value": 0.5, "unit": "µg/mL"},
      {"measurement": "MIC in combination, Antibiotic", "setting": "Bacillus cereus; [7]", "value": 1, "unit": "µg/mL"},
      {"measurement": "FIC of antibiotic", "setting": "Bacillus cereus; in combination with SP-BIM 9", "value": 0.125},
      {"measurement": "FIC of antibiotic", "setting": "Bacillus cereus; in combination with SP-BIM 13", "value": 0.25},
      {"measurement": "FIC compound", "setting": "[1]; MRSA strain 1594", "value": 0.3},
      {"measurement": "Rescue concentration of SP-BIM 13", "setting": "[1]; MRSA strain 1594", "value": 63, "unit": "µg/mL"},
      {"measurement": "Interpretation", "setting": "[1]; MRSA strain 1594", "value": "Synergy (Synergy: FICI≤0.5)"},
      {"measurement": "Σ FIC", "setting": "[1]; MRSA strain 1594", "value": "<0.43"},
      {"measurement": "MIC of antibiotic only", "setting": "[1]; MRSA strain 1594", "value": 8, "unit": "µg/mL"},
      {"measurement": "FIC antibiotic", "setting": "[1]; MRSA strain 1594", "value": 0.125},
      {"measurement": "MIC of antibiotic in combination", "setting": "[1]; MRSA strain 1594", "value": 1, "unit": "µg/mL"},
      {"measurement": "FIC compound", "setting": "[1]; MRSA strain 5872", "value": 0.064},
      {"measurement": "Rescue concentration of SP-BIM 13", "setting": "[1]; MRSA strain 5872", "value": 16, "unit": "µg/mL"},
      {"measurement": "Interpretation", "setting": "[1]; MRSA strain 5872", "value": "Synergy (Synergy: FICI≤0.5)"},
      {"measurement": "Σ FIC", "setting": "[1]; MRSA strain 5872", "value": "<0.19"},
      {"measurement": "MIC of antibiotic only", "setting": "[1]; MRSA strain 5872", "value": 32, "unit": "µg/mL"},
      {"measurement": "FIC antibiotic", "setting": "[1]; MRSA strain 5872", "value": 0.125},
      {"measurement": "MIC of antibiotic in combination", "setting": "[1]; MRSA strain 5872", "value": 4, "unit": "µg/mL"},
      {"measurement": "FIC compound", "setting": "[1]; MRSA strain 7153", "value": 0.128},
      {"measurement": "Rescue concentration of SP-BIM 13", "setting": "[1]; MRSA strain 7153", "value": 32, "unit": "µg/mL"},
      {"measurement": "Interpretation", "setting": "[1]; MRSA strain 7153", "value": "Synergy (Synergy: FICI≤0.5)"},
      {"measurement": "Σ FIC", "setting": "[1]; MRSA strain 7153", "value": "<0.25"},
      {"measurement": "MIC of antibiotic only", "setting": "[1]; MRSA strain 7153", "value": 8, "unit": "µg/mL"},
      {"measurement": "FIC antibiotic", "setting": "[1]; MRSA strain 7153", "value": 0.125},
      {"measurement": "MIC of antibiotic in combination", "setting": "[1]; MRSA strain 7153", "value": 1, "unit": "µg/mL"},
      {"measurement": "FIC compound", "setting": "[1]; MRSA strain 7172", "value": 0.128},
      {"measurement": "Rescue concentration of SP-BIM 13", "setting": "[1]; MRSA strain 7172", "value": 32, "unit": "µg/mL"},
      {"measurement": "Interpretation", "setting": "[1]; MRSA strain 7172", "value": "Synergy (Synergy: FICI≤0.5)"},
      {"measurement": "Σ FIC", "setting": "[1]; MRSA strain 7172", "value": "<0.38"},
      {"measurement": "MIC of antibiotic only", "setting": "[1]; MRSA strain 7172", "value": 8, "unit": "µg/mL"},
      {"measurement": "FIC antibiotic", "setting": "[1]; MRSA strain 7172", "value": 0.250},
      {"measurement": "MIC of antibiotic in combination", "setting": "[1]; MRSA strain 7172", "value": 2, "unit": "µg/mL"},
      {"measurement": "FIC compound", "setting": "[1]; MRSA strain 7698", "value": 0.128},
      {"measurement": "Rescue concentration of SP-BIM 13", "setting": "[1]; MRSA strain 7698", "value": 32, "unit": "µg/mL"},
      {"measurement": "Interpretation", "setting": "[1]; MRSA strain 7698", "value": "Synergy (Synergy: FICI≤0.5)"},
      {"measurement": "Σ FIC", "setting": "[1]; MRSA strain 7698", "value": "<0.19"},
      {"measurement": "MIC of antibiotic only", "setting": "[1]; MRSA strain 7698", "value": 16, "unit": "µg/mL"},
      {"measurement": "FIC antibiotic", "setting": "[1]; MRSA strain 7698", "value": 0.063},
      {"measurement": "MIC of antibiotic in combination", "setting": "[1]; MRSA strain 7698", "value": 1, "unit": "µg/mL"},
      {"measurement": "FIC compound", "setting": "[1]; MRSA strain 10132", "value": 0.032},
      {"measurement": "Rescue concentration of SP-BIM 13", "setting": "[1]; MRSA strain 10132", "value": 8, "unit": "µg/mL"},
      {"measurement": "Interpretation", "setting": "[1]; MRSA strain 10132", "value": "Synergy (Synergy: FICI≤0.5)"},
      {"measurement": "Σ FIC", "setting": "[1]; MRSA strain 10132", "value": "<0.09"},
      {"measurement": "MIC of antibiotic only", "setting": "[1]; MRSA strain 10132", "value": 8, "unit": "µg/mL"},
      {"measurement": "FIC antibiotic", "setting": "[1]; MRSA strain 10132", "value": 0.063},
      {"measurement": "MIC of antibiotic in combination", "setting": "[1]; MRSA strain 10132", "value": 0.5, "unit": "µg/mL"},
      {"measurement": "MIC of antibiotic, No Compound", "setting": "Enterococcus faecalis", "value": 0.5, "unit": "µg/mL"},
      {"measurement": "MIC", "setting": "Klebsiella pneumoniae; SP-BIM 9 checkerboard", "value": 16, "unit": "µg/mL"},
      {"measurement": "MIC", "setting": "Klebsiella pneumoniae; SP-BIM 13 checkerboard", "value": 16, "unit": "µg/mL"},
      {"measurement": "FIC of SP-BIM 9", "setting": "Klebsiella pneumoniae; [4]", "value": 0.5},
      {"measurement": "FIC of SP-BIM 13", "setting": "Klebsiella pneumoniae; [5]", "value": 0.3},
      {"measurement": "Interpretation", "setting": "Klebsiella pneumoniae; antibiotic + SP-BIM 9", "value": "Additive (Additive: FICI>0.5-1.0)"},
      {"measurement": "Σ FIC", "setting": "Klebsiella pneumoniae; antibiotic + SP-BIM 9", "value": "<0.8"},
      {"measurement": "Interpretation", "setting": "Klebsiella pneumoniae; antibiotic + SP-BIM 13", "value": "Synergy (Synergy: FICI≤0.5)"},
      {"measurement": "Σ FIC", "setting": "Klebsiella pneumoniae; antibiotic + SP-BIM 13", "value": "<0.4"},
      {"measurement": "MIC in combination, Antibiotic", "setting": "Klebsiella pneumoniae; [6]", "value": 4, "unit": "µg/mL"},
      {"measurement": "MIC in combination, Antibiotic", "setting": "Klebsiella pneumoniae; [7]", "value": 2, "unit": "µg/mL"},
      {"measurement": "FIC of antibiotic", "setting": "Klebsiella pneumoniae; in combination with SP-BIM 9", "value": 0.25},
      {"measurement": "FIC of antibiotic", "setting": "Klebsiella pneumoniae; in combination with SP-BIM 13", "value": 0.1},
      {"measurement": "MIC", "setting": "Streptococcus pneumoniae [2]", "value": 63, "unit": "µg/mL"},
      {"measurement": "FIC of SP-BIM 9", "setting": "Streptococcus pneumoniae [3]", "value": 0.50}
    ]}
  ]
}
